Test results taken from the RepoRT retention time repository (doi:10.1016/j.jchromb.2020.122105).

What was measured:
Conditions in all cases: stereoisomer not certain
[1] = RP, Waters CORTECS T3, 100 × 2.1 mm, 2.7 µm, 0.2 mL/min, estimated dead time 1.1 min; A: water + 0.1% formic acid, pH 3; B: methanol + 0.1% formic acid, pH 3; gradient (min/%B) 0/5 5/5 25/95 25.1/100 35/100 35.1/5 45/5
[2] = RP, Thermo Scientific Hypercarb, 150 × 2.1 mm, 5 µm, 0.1 mL/min, estimated dead time 3.3 min; A: water + 0.1% formic acid, pH 3; B: methanol + 0.1% formic acid, pH 3; gradient (min/%B) 0/5 5/5 20/100 35/100 35.1/5 45/5
[3] = RP, Waters ACQUITY UPLC BEH C18, 100 × 2.1 mm, 1.7 µm, 0.2 mL/min, estimated dead time 1.1 min; A: water + 0.025% formic acid + 20 mM ammonium acetate + 0.055% ammonium hydroxide, pH 7; B: methanol; gradient (min/%B) 0/5 5/5 25/100 30/100 30.1/5 35/5
[4] = HILIC, Merck SeQuant ZIC-HILIC, 150 × 2.1 mm, 5 µm, 0.75 mL/min, estimated dead time 0.44 min; A: water + 10 mM ammonium formate, pH 6; B: 5% water + 95% acetonitrile + 10 mM ammonium formate, pH 6; gradient (min/%B) 0/95 5/95 20/57 25/57 30/95 40/95
[5] = HILIC, Merck SeQuant ZIC-HILIC, 150 × 2.1 mm, 5 µm, 0.75 mL/min, estimated dead time 0.44 min; A: water + 0.1% acetic acid + 10 mM ammonium acetate, pH 4; B: 5% water + 95% acetonitrile + 0.1% acetic acid + 10 mM ammonium acetate, pH 4; gradient (min/%B) 0/95 5/95 20/57 25/57 30/95 40/95
[6] = HILIC, Waters XBridge BEH Amide, 100 × 2.1 mm, 2.5 µm, 0.5 mL/min, estimated dead time 0.44 min; A: water + 0.1% acetic acid + 10 mM ammonium acetate, pH 4; B: 5% water + 95% acetonitrile + 0.1% acetic acid + 10 mM ammonium acetate, pH 4; gradient (min/%B) 0/95 5/95 20/57 25/57 30/95 40/95
[7] = HILIC, Thermo Scientific Accucore HILIC, 100 × 2.1 mm, 2.6 µm, 0.5 mL/min, estimated dead time 0.44 min; A: water + 0.1% formic acid + 10 mM ammonium formate, pH 3; B: 5% water + 95% acetonitrile + 0.1% formic acid + 10 mM ammonium formate, pH 3; gradient (min/%B) 0/95 5/95 20/57 25/57 30/95 40/95
[8] = RP, Waters CORTECS T3, 100 × 2.1 mm, 2.7 µm, 0.3 mL/min, estimated dead time 0.73 min; A: water + 0.1% formic acid, pH 3; B: methanol + 0.1% formic acid, pH 3; gradient (min/%B) 0/5 5/5 25/100 30/100 30.1/5 35/5
[9] = RP, Waters CORTECS T3, 100 × 2.1 mm, 2.7 µm, 0.3 mL/min, estimated dead time 0.73 min; A: water + 0.1% formic acid, pH 3; B: methanol + 0.1% formic acid, pH 3; gradient (min/%B) 0/0 5/0 25/100 30/100 30.1/0 35/0
[10] = as above; remark: listed apart in the source
[11] = RP, Waters CORTECS T3, 100 × 2.1 mm, 2.7 µm, 0.2 mL/min, estimated dead time 1.1 min; A: water + 0.1% formic acid, pH 3; B: methanol + 0.1% formic acid, pH 3; gradient (min/%B) 0/0 1/0 6/5 30/100 35/100 35.1/0 40/0
[12] = RP, Waters CORTECS T3, 100 × 2.1 mm, 2.7 µm, 0.1 mL/min, estimated dead time 2.2 min; A: water + 0.1% formic acid, pH 3; B: methanol + 0.1% formic acid, pH 3; gradient (min/%B) 0/0 1/0 6/5 30/100 35/100 35.1/0 40/0
[13] = RP, Waters CORTECS T3, 100 × 2.1 mm, 2.7 µm, 0.2 mL/min, estimated dead time 1.1 min; A: water + 0.1% formic acid, pH 3; B: methanol + 0.1% formic acid, pH 3; gradient (min/%B) 0/0 1/0 6/5 30/100 35/100 35.1/0 40/0; remark: listed apart in the source
[14] = RP, Waters CORTECS T3, 100 × 2.1 mm, 2.7 µm, 0.15 mL/min, estimated dead time 1.5 min; A: water + 0.1% formic acid, pH 3; B: methanol + 0.1% formic acid, pH 3; gradient (min/%B) 0/0 1/0 6/5 30/100 35/100 35.1/0 40/0
[15] = RP, Waters CORTECS T3, 100 × 2.1 mm, 2.7 µm, 0.3 mL/min, estimated dead time 0.73 min; A: water + 0.1% formic acid, pH 3; B: methanol + 0.1% formic acid, pH 3; gradient (min/%B) 0/0 1/0 6/5 30/100 35/100 35.1/0 40/0
[16] = as above; remark: listed apart in the source
[17] = RP, Waters CORTECS T3, 100 × 2.1 mm, 2.7 µm, 0.25 mL/min, estimated dead time 0.88 min; A: water + 0.1% formic acid, pH 3; B: methanol + 0.1% formic acid, pH 3; gradient (min/%B) 0/0 1/0 6/5 30/100 35/100 35.1/0 40/0
[18] = RP, Waters CORTECS T3, 100 × 2.1 mm, 2.7 µm, 0.1 mL/min, estimated dead time 2.2 min; A: water + 0.1% formic acid, pH 3; B: methanol + 0.1% formic acid, pH 3; gradient (min/%B) 0/5 5/5 25/95 25.1/100 35/100 35.1/5 45/5
[19] = RP, Waters CORTECS T3, 100 × 2.1 mm, 2.7 µm, 0.3 mL/min, estimated dead time 0.73 min; A: water + 0.1% formic acid, pH 3; B: methanol + 0.1% formic acid, pH 3; gradient (min/%B) 0/5 5/5 25/95 25.1/100 35/100 35.1/5 45/5
[20] = RP, Waters CORTECS T3, 100 × 2.1 mm, 2.7 µm, 0.15 mL/min, estimated dead time 1.5 min; A: water + 0.1% formic acid, pH 3; B: methanol + 0.1% formic acid, pH 3; gradient (min/%B) 0/5 5/5 25/95 25.1/100 35/100 35.1/5 45/5
[21] = RP, Waters ACQUITY UPLC BEH C18, 100 × 2.1 mm, 1.7 µm, 0.2 mL/min, estimated dead time 1.1 min; A: water + 0.1% formic acid, pH 3; B: methanol + 0.1% formic acid, pH 3; gradient (min/%B) 0/5 5/5 25/100 30/100 30.1/5 35/5
[22] = RP, Waters CORTECS T3, 100 × 2.1 mm, 2.7 µm, 0.25 mL/min, estimated dead time 0.88 min; A: water + 0.1% formic acid, pH 3; B: methanol + 0.1% formic acid, pH 3; gradient (min/%B) 0/5 5/5 25/95 25.1/100 35/100 35.1/5 45/5
[23] = RP, Waters ACQUITY UPLC BEH C18, 100 × 2.1 mm, 1.7 µm, 0.1 mL/min, estimated dead time 2.2 min; A: water + 0.1% formic acid, pH 3; B: methanol + 0.1% formic acid, pH 3; gradient (min/%B) 0/5 5/5 25/100 30/100 30.1/5 35/5
[24] = RP, Waters ACQUITY UPLC BEH C18, 100 × 2.1 mm, 1.7 µm, 0.1 mL/min, estimated dead time 2.2 min; A: water + 0.1% formic acid, pH 3; B: methanol + 0.1% formic acid, pH 3; gradient (min/%B) 0/5 5/5 25/95 25.1/100 35/100 35.1/5 45/5
[25] = as above; remark: listed apart in the source
[26] = as above; remark: listed apart in the source
[27] = RP, Waters ACQUITY UPLC BEH C18, 100 × 2.1 mm, 1.7 µm, 0.1 mL/min, estimated dead time 2.2 min; A: water + 0.045% formic acid + 0.11% ammonium hydroxide, pH 7; B: methanol; gradient (min/%B) 0/5 5/5 25/95 25.1/100 35/100 35.1/5 45/5
[28] = RP, Waters ACQUITY UPLC BEH C18, 100 × 2.1 mm, 1.7 µm, 0.2 mL/min, estimated dead time 1.1 min; A: water + 0.025% formic acid + 20 mM ammonium acetate + 0.055% ammonium hydroxide, pH 7; B: methanol; gradient (min/%B) 0/5 5/5 25/100 30/100 30.1/5 35/5; remark: listed apart in the source

Structure (SMILES) | LC retention time [1] | LC retention time [2] | LC retention time [3] | LC retention time [4] | LC retention time [5] | LC retention time [6] | LC retention time [7] | LC retention time [9] | LC retention time [10] | LC retention time [14] | LC retention time [17] | LC retention time [21] | LC retention time [22] | LC retention time [23] | other results
NCCC(=O)NC(Cc1cnc[nH]1)C(=O)O (configuration not stated) [CARNOSINE] | 2.43 min | 4.86 min | 1.36 min | 15.9 min | 16.3 min | 15 min | 15.4 min |  |  |  |  |  |  |  | 
CCCCCCSCC(NC(=O)CCC(N)C(=O)O)C(=O)NCC(=O)O (configuration not stated) [S-HEXYL-GLUTATHIONE] | 22.9 min |  | 12.8 min |  |  |  |  | 16.2 min | 16.2 min | 20.8 min | 18.7 min | 17.5 min | 16.6 min | 20.6 min | LC retention time [8]: 15.6 min; LC retention time [11]: 19.5 min; LC retention time [12]: 17.4 min; LC retention time [13]: 19.5 min; LC retention time [15]: 18.1 min; LC retention time [16]: 18.1 min; LC retention time [18]: 20.5 min; LC retention time [19]: 16 min; LC retention time [20]: 18.5 min; LC retention time [24]: 21.2 min; LC retention time [25]: 21.1 min; LC retention time [26]: 21.2 min; LC retention time [27]: 19.8 min
CCCCCCCCCCCC(=O)O [LAURIC ACID] |  |  |  |  |  |  | 9.23 min |  |  |  |  |  |  |  | 
CC(CCC(=O)NCC(=O)O)C1CCC2C3C(O)CC4CC(O)CCC4(C)C3CC(O)C12C (configuration not stated) [GLYCOCHOLATE] |  |  | 19.5 min |  |  |  | 9.61 min |  |  |  |  | 21.8 min | 21.7 min |  | 
Nc1ncnc2nc[nH]c12 [ADENINE] | 2.67 min |  | 1.89 min | 2.16 min |  | 2.99 min | 2.08 min | 0.91 min | 0.91 min | 1.8 min | 1.06 min | 1.36 min | 1.06 min | 2.71 min | LC retention time [15]: 0.9 min; LC retention time [16]: 0.9 min; LC retention time [25]: 2.65 min; LC retention time [27]: 2.75 min; LC retention time [28]: 3.46 min
N[C@@H](Cc1cnc[nH]1)C(=O)O [L-HISTIDINE] | 2.39 min | 4.72 min |  |  |  |  | 14.9 min |  |  |  |  |  |  |  | 
NC(C=O)C(O)C(O)C(O)COS(=O)(=O)O [D-GLUCOSAMINE 6-SULFATE] |  |  |  | 15 min | 15.2 min | 13.1 min | 11.8 min |  |  |  |  |  |  |  | 
CC(O)(CC(=O)O)CC(=O)O [3-HYDROXY-3-METHYLGLUTARATE] |  |  |  | 12.8 min | 12.2 min | 12.1 min | 11.2 min |  |  |  |  |  |  |  | 
CC(=O)NC(CCCCN)C(=O)O [N-ALPHA-ACETYL-L-LYSINE] | 2.64 min | 4.9 min |  | 13.6 min | 13.4 min | 13.2 min | 13 min | 0.89 min | 0.89 min | 1.78 min | 1.09 min | 1.34 min |  | 2.69 min | LC retention time [11]: 1.34 min; LC retention time [13]: 1.35 min; LC retention time [28]: 1.37 min
